Source: patent US20260021167A1, “COMPOSITIONS AND METHODS FOR TREATING OR PREVENTING NEURODEGENERATIVE DISEASES” (Delaware State University, priority 2022, published 2026)
“Also recorded” adds a separate entry of the source.

Legend:
[1] = tested on: PFF-injected old mice; experiment: Pole test in PFF-injected mice; format: in vivo, mouse; conditions: 10 and/or 50 mg/kg oral, vs PFF only
Description: (§1) A mouse model of Parkinson's disease is C57BL/6 male or female mice (50% each) injected with 5 μg of mouse PFF at 12 months old, followed by a treatment below for 6-7 weeks: • 1) without PFF injection, followed by vehicle (control, n=7); • 2) PFF injection, followed by vehicle (PFF only: control, n=8); • 3) PFF injection, followed by daily 10 mg/kg Momordin gavage (n=7-8); • 4) PFF injection, followed by daily 50 mg/kg Momordin gavage (n=7-8).
Pole Test. All the mice were placed on a vertical pole with their face up and habituated to face down the pole to climb down for 5 consecutive days. The time taken for a mouse to turn and position for the descend was noted, and the latency for climb-down was counted. A mouse falling off or slipping down the pole without turning was considered a failure. Videos of the pole test were taken and analyzed by a blinded rater to record the total climb-down or turn time. Minimal 5 trials were performed for each animal, and the average of 5 trials was considered as the final score for data presentation.

[2] = tested on: N27 cells; experiment: ROS level (CellROX deep red) after PFF treatment; format: cell-based, rat; conditions: compared to PFF only control
Description: (§2) ROS Levels and Thioflavin-T Assessment. The reactive oxygen species (ROS) is a released byproduct during oxidative stress. On the other hand, thioflavin-T is an assay used to understand the level of protein aggregation that can be detrimental to cell survival. In order to assess the level of oxidative stress, all the SENP-1 inhibitors treated cells were incubated in media containing 5 μg/mL of the ROS reagent CellROX deep red reagent (C10422, Thermo Fisher Scientific) and 25 μg/mL of thioflavin-T reagent (CAS: 2390-54-7, Acros Organics) at 37° C. for 30 min. The cells were then washed 3 times with warm phosphate-buffered saline (PBS) without Ca^2+ or Mg^2+ (137 mM NaCl, 2.7 mM KCl, 4.3 mM Na2HPO4, and 1.47 mM KH2PO4), and several images from each well were collected using EVOS FL Cell Imaging Systems (Invitrogen, MA, USA). A minimum of 2 wells were dedicated to each group, and the experiments were repeated 3-4 times independently (total replicated: n=8-10/group). The intensity of red fluorescence corresponding to ROS levels and green labels corresponding to protein aggregation was analyzed by blinded raters using ImageJ.

[3] = tested on: N27 cells; experiment: Cell viability (MTT) assay after PFF exposure; format: cell-based, rat; conditions: N27 cells after PFF (1 μg/ml) exposure for 24 h; compared to PFF only control
Text: (§3) Cell Viability Assay. The MTT assay is a colorimetric assay that is based on the conversion of water-soluble MTT (3-(4,5-dimethylthiazol-2-yl)-2,5-diphenyltetrazolium bromide) into formazan crystal by mitochondrial dehydrogenase enzymes, soluble in 100% DMSO. The resulting solution is purple in color, and the color intensity is proportional to the viable cells for each well in a 96-well plate. A variety of SENP-1 inhibitors, such as SUMO-2 aldehyde, Momordin lc, streptonigrin, hinokiflavone, oleanolic acid and siRNA of SENP-1, were treated in N27 cells after PFF (1 μg/ml) exposure for 24 h. After adding 5 mM MTT dye to cells, the color intensity in MTT assays was measured using a spectrophotometer (SpectraMax M5e, Molecular devices, Dover, USA), at 570 nm with a reference wavelength of 630 nm. The cells were incubated with the MTT reagent (ab211091, Abcam) at 37° C. for 3 h, followed by solubilizing the formazan crystals in solution.
In this study, numerous commercially available SENP-1 inhibitors were tested for the recovery effects from preformed fibrils of alpha-synuclein (PFF)-induced PD models in vitro. […]

[4] = tested on: SUMO-1 conjugated α-synuclein; experiment: Western blot of SUMO-1 conjugated α-synuclein in α-synuclein IP tissue samples; format: in vivo, mouse; conditions: PFF-injected mice, vs PFF only
Description: (§4) A) In Western blots, Momordin reversed the toxicity from PFF injection in reducing phospho-α-synuclein and SENP-1 on α-synuclein in the MB and STR. […] A pathological marker, phosphorylated α-synuclein was increased by PFF injection, which was reversed by Momordin treatment in the MB (F) and the STR (G).
as §1

[5] = tested on: phosphorylated α-synuclein; experiment: Western blot of phosphorylated α-synuclein in α-synuclein IP tissue samples; format: in vivo, mouse; conditions: PFF-injected mice, vs PFF only
Description: as §4, §1

[6] = tested on: N27 dopaminergic cells; experiment: Screening of SENP-1 inhibitors (LDH, MTT, ROS, Thioflavin-T) in PFF-induced PD model in vitro; format: cell-based, rat; conditions: N27 dopaminergic cells after exposure to PFF for 24 hrs
Text: as §3
Cytotoxicity Assay. The lactate dehydrogenase (LDH) is a cytosolic enzyme that is released into the media during cellular stress and increased levels of cytotoxicity. The cytotoxicity assay was measured using reagents from the Pierce LDH Cytotoxicity Assay Kit (88954, Thermo). For the assay, 50 μL of media from each well after PFF exposure, followed by SENP-1 treatment, was put into wells of a new 96-well plate. The LDH reagents were prepared according to the protocol provided, and 50 μL of the LDH reagent was mixed into each well. The total 100 μL of media containing LDH and its reagent were incubated at 37° C. for 30 min, followed by the application of a stop solution. The mixture was analyzed using a spectrophotometer (SpectraMax M5e, Molecular devices) at 490 nm with a reference wavelength of 680 nm.
as §2, with “A minimum of 2 wells were dedicated to each group, and the experiments were repeated 3-4 times independently (total replicated: n=8-10/group).” left out, “ImageJ. […]” for “ImageJ.”

[7] = low and high dosages (10 or 50 mg/kg)
[8] = tested on: phosphorylated Ser-129-α-synuclein; experiment: Immunohistochemistry of phosphorylated Ser-129-α-synuclein in brain sections of PFF-injected mice; format: in vivo, mouse
[9] = tested on: N27 dopaminergic cell line; experiment: In vitro cell death induced by MPP+ or PFF; format: cell-based, rat; conditions: MPP+ or PFF-mediated toxic conditions
[10] = both 10 and 50 mg/kg oral, PFF-injected mice, vs PFF only

CC1(C)CC[C@]2(C(=O)O)CC[C@]3(C)C(=CC[C@@H]4[C@@]5(C)CC[C@H](O[C@@H]6O[C@H](C(=O)O)[C@@H](O)[C@H](O[C@@H]7OC[C@@H](O)[C@H](O)[C@H]7O)[C@H]6O)C(C)(C)[C@@H]5CC[C@]43C)[C@@H]2C1 [Momordin lc]
climb-down time in pole tests [1]: reduces | turn time in pole tests [1]: reduces | level of ROS [2]: reduced the level of ROS | cell viability from PFF-mediated toxicity (MTT assay) [3]: significantly enhanced the cell viability | SUMO-1 conjugated α-synuclein in the MB (α-synuclein IP) ([4]; midbrain): increase in SUMO-1 conjugated α-synuclein | SUMO-1 conjugated α-synuclein in the STR (α-synuclein IP) ([4]; striatum): increase in SUMO-1 conjugated α-synuclein | phosphorylated α-synuclein in the MB (α-synuclein IP) ([5]; midbrain): reversed | phosphorylated α-synuclein in the STR (α-synuclein IP) ([5]; striatum): reversed | efficacy in preventing protein aggregation-mediated damage and reversing PFF-induced damage (LDH, MTT, ROS, Thioflavin-T assays) [6]: clearly efficacious | safety in mice [7]: safe | accumulation of phosphorylated alpha-synuclein in multiple brain regions ([8]; 10 or 50 mg/kg oral for 6-7 weeks, 15-16 month-old mice, 3-4 months after PFF injection): sufficient to prevent the accumulation; also recorded: effective to prevent the accumulation | level of phospho-α-synuclein in the SNc (IHC) [8, 10]: significantly reduced | level of phospho-α-synuclein in the striatum (IHC) [8, 10]: significantly reduced | protection against in vitro cell death [9]: protect against in vitro cell death
